One test addresses EGFR del19/T790M/C797S (Homo sapiens, UniProt P00533, C797S/DEL746-750/T790M). Kind of test: Biochemical EGFR kinase assay (Lance Ultra TR-FRET), del19/T790M/C797S. The gist of the method:
(§1)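 Kinase activity is measured by TR-FRET phosphopeptide detection. Compounds span 0.003 μM to 10 μM; the 1 h reaction at room temperature is quenched with EDTA, then labelled antibody (2 nM) is incubated 60 min before reading.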
On the technique in general: In TR-FRET formats the signal depends on donor and acceptor labels being close together.

The next test deals with EGFR L858R/T790M/C797S (Homo sapiens, UniProt P00533, C797S/L858R/T790M). As to the kind of experiment: Biochemical EGFR kinase assay (Lance Ultra TR-FRET), L858R/T790M/C797S. The gist of the method:
as §1

For another test, the target named is EGFR del19/C797S (Homo sapiens, UniProt P00533, C797S/DEL746-750). As to the kind of experiment: Biochemical EGFR kinase assay (Lance Ultra TR-FRET), del19/C797S. The gist of the method:
as §1

The target in a further test is EGFR L858R/C797S (Homo sapiens, UniProt P00533, C797S/L858R). Kind of test: Biochemical EGFR kinase assay (Lance Ultra TR-FRET), L858R/C797S. In a few lines: as §1
EGFR L858R/C797S, sequence (P00533 25-1210 C797S/L858R): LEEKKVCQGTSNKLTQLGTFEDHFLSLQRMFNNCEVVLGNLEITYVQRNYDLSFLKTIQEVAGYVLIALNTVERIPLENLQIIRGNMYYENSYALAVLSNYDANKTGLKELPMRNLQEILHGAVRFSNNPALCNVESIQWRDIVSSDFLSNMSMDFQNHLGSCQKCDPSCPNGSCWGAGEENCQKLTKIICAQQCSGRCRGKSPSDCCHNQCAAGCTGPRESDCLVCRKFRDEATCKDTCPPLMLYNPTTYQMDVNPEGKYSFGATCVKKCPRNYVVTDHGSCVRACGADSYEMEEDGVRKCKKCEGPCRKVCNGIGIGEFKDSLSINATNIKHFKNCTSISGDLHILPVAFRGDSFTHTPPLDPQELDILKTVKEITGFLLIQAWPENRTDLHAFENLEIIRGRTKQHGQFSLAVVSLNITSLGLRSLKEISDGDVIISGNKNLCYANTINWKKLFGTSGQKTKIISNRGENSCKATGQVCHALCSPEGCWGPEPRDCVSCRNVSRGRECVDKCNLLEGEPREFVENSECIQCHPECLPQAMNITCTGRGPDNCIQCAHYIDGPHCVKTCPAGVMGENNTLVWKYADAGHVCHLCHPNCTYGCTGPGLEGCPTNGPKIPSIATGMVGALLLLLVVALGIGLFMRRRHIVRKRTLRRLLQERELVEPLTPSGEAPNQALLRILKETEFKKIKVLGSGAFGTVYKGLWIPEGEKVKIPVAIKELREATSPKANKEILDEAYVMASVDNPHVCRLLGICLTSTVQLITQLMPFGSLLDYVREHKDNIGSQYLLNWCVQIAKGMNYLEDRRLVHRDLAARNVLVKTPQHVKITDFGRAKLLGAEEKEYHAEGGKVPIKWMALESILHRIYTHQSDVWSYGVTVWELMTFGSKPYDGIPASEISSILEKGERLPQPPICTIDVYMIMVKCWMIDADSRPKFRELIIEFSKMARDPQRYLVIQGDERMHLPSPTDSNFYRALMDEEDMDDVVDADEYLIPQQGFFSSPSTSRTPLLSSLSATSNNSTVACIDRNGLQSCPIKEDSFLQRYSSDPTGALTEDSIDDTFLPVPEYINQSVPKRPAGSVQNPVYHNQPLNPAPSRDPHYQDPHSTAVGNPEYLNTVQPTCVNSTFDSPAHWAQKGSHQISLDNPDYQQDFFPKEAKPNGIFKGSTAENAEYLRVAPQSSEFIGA
In another test the target is EGFR wildtype (WT) (Homo sapiens, UniProt P00533). Kind of test: Biochemical EGFR kinase assay (Lance Ultra TR-FRET), wildtype. In a few lines:
as §1

The mark [1] stands for this setting: IC50 del19/T790M/C797S (nM) 100 μM ATP, 100 μM ATP.
Setting [2] is: Km ATP, read-out: IC50 del19/T790M/C797S (nM) Km ATP.
Where [3] appears, read: IC50 L858R/T790M/C797S (nM) 100 μM ATP, 100 μM ATP.
Setting [4] is: Km ATP, read-out: IC50 L858R/T790M/C797S (nM) Km ATP.
Setting [5] is: IC50 del19/C797S (nM) 100 μM ATP, 100 μM ATP.
The mark [6] stands for this setting: Km ATP, read-out: IC50 del19/C797S (nM) Km ATP.
Setting [7] is: IC50 L858R/C797S (nM) 100 μM ATP, 100 μM ATP.
The mark [8] stands for this setting: Km ATP, read-out: IC50 L858R/C797S (nM) Km ATP.
The mark [9] stands for this setting: IC50 WT (nM) 100 μM ATP, 100 μM ATP.
Where [10] appears, read: Km ATP, read-out: IC50 WT (nM) Km ATP.

Each structure is given as a SMILES string. Read-outs that look alike come from different tables or passages of the source.

EGFR wildtype (WT), sequence (P00533 25-1210): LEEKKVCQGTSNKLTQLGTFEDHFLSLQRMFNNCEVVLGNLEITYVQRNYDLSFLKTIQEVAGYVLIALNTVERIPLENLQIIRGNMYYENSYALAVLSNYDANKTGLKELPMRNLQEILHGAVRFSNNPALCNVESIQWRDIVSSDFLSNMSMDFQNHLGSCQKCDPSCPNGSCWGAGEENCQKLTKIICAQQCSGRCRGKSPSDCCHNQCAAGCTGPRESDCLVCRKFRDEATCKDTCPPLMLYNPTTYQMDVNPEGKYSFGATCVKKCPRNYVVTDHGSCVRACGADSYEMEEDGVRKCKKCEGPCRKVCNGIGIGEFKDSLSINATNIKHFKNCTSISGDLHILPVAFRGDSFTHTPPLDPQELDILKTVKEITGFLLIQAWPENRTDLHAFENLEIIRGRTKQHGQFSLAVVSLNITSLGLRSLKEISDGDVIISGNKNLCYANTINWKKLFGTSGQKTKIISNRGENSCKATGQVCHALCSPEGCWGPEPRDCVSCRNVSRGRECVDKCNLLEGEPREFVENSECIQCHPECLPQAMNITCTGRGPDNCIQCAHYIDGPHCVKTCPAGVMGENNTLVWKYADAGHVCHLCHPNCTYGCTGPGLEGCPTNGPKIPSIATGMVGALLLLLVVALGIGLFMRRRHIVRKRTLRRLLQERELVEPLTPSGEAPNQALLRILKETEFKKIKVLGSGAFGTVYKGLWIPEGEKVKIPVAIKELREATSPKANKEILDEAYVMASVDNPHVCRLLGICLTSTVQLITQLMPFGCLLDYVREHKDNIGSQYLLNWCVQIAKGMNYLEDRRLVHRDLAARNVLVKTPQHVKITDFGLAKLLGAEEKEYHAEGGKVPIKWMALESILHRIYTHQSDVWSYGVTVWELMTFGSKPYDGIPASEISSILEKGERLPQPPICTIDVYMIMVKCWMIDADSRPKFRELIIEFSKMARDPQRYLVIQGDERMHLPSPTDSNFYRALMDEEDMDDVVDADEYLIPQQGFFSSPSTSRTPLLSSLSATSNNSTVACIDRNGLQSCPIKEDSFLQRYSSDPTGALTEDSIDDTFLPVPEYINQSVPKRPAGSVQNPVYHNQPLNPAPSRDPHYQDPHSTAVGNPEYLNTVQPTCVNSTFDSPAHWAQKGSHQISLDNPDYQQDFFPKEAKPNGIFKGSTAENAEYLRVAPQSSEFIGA
EGFR del19/T790M/C797S, sequence (P00533 with tags, fused parts or gaps DEL746-750/T790M/C797S): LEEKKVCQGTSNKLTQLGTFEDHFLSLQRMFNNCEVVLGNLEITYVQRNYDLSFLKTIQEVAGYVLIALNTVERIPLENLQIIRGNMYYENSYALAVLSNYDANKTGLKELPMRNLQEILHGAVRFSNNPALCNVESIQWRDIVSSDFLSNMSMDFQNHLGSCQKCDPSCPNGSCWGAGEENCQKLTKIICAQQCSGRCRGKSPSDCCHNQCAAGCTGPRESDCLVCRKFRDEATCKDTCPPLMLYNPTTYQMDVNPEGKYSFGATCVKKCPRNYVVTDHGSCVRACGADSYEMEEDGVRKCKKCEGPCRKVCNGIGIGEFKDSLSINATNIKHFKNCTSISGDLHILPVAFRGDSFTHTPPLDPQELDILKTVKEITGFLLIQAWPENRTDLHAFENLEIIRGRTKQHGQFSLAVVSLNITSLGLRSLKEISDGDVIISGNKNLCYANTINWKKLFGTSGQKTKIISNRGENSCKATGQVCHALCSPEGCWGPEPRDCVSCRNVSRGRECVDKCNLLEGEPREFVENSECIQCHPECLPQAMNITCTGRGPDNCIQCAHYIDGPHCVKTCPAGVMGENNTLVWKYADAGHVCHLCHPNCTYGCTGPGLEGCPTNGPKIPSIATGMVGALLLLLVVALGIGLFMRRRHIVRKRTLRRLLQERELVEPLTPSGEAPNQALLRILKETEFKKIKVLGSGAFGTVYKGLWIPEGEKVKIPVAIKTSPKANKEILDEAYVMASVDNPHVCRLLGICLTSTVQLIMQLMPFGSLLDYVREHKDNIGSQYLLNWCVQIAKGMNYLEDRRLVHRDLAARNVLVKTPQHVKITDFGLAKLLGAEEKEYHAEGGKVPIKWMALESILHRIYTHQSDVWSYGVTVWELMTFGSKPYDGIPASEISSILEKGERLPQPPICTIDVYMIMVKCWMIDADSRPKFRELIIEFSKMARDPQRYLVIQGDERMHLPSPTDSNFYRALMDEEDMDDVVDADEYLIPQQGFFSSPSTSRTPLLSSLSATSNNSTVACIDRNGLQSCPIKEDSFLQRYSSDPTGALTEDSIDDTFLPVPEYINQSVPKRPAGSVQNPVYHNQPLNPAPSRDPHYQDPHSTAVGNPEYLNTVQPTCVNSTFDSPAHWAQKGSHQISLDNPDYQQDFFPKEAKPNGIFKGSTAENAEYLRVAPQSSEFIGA
EGFR del19/C797S, sequence (P00533 with tags, fused parts or gaps DEL746-750/C797S): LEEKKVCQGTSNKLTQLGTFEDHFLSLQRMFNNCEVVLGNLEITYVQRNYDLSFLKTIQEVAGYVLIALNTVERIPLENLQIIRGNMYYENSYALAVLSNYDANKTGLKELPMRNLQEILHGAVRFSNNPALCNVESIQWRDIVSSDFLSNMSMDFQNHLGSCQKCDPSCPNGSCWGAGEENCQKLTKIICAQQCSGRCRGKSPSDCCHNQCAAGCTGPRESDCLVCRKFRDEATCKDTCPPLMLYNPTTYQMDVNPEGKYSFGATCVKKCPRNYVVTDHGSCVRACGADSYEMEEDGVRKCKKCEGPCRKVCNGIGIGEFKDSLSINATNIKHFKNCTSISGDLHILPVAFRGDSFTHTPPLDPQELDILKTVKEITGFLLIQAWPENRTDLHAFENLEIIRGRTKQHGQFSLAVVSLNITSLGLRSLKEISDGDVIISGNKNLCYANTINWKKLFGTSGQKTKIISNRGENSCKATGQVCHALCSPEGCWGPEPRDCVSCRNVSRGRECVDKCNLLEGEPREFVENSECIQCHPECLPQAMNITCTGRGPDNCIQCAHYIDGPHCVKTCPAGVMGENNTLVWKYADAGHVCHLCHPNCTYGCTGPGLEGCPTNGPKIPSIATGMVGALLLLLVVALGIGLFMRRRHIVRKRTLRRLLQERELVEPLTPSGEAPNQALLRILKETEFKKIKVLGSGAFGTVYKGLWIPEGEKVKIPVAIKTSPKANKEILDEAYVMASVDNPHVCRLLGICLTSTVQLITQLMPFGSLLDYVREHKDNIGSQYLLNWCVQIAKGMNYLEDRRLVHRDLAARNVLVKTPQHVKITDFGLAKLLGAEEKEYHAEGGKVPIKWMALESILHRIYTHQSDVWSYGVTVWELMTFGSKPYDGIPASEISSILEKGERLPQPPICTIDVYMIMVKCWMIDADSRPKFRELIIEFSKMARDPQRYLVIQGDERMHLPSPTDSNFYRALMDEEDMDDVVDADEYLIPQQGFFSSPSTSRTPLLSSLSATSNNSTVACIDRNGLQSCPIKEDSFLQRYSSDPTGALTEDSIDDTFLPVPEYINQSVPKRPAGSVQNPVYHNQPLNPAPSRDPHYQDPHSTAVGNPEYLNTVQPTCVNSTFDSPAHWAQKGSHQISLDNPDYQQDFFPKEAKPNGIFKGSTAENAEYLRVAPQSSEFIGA

As to `O=C(c1cnc(Nc2ccnc(-c3cnn(S(=O)(=O)C4CC4)c3)n2)cc1N[C@H]1CC[C@@H](CO)CC1)C(F)F` [Example 49, 1-(6-((2-(1-(Cyclopropylsulfonyl)-1H-pyrazol-4-yl)pyrimidin-4-yl)amino)-4-(((1s,4s)-4-(hydroxymethyl)cyclohexyl)amino)pyridin-3-yl)-2,2-difluoroethan-1-one], the IC50 worked out at 0.4 nM on EGFR del19/T790M/C797S (setting [1]); 0.4 nM on EGFR del19/T790M/C797S (setting [2]); 0.7 nM at EGFR L858R/T790M/C797S (setting [3]); 0.2 nM on EGFR L858R/T790M/C797S (setting [4]); 1.2 nM on EGFR del19/C797S (setting [5]); 2.6 nM at EGFR del19/C797S (setting [6]). The IC50 on EGFR L858R/C797S (setting [7]) is 21.1 nM; on EGFR L858R/C797S (setting [8]), 4 nM; against EGFR wildtype (WT) (setting [9]) it was > 10000 nM; at EGFR wildtype (WT) (setting [10]), 181 nM.
Regarding `O=C(c1cnc(Nc2ccnc(-c3cnn(S(=O)(=O)C4CC4)c3)n2)cc1N[C@H]1CCC[C@H](O)C1)C1CC1` [Example 22, Cyclopropyl(6-((2-(1-(cyclopropylsulfonyl)-1H-pyrazol-4-yl)pyrimidin-4-yl)amino)-4-(((1S,3S)-3-hydroxycyclohexyl)amino)pyridin-3-yl)methanone], the IC50 at EGFR del19/T790M/C797S (setting [1]) was 0.9 nM; against EGFR L858R/T790M/C797S (setting [3]), 1.1 nM; at EGFR del19/C797S (setting [5]) it was 14 nM; at EGFR L858R/C797S (setting [7]), 33.2 nM; against EGFR wildtype (WT) (setting [9]), > 10000 nM.
With `CN(C)CCN1CCC(Nc2cc(Nc3ccnc(-c4cnn(S(=O)(=O)C5CC5)c4)n3)ncc2C(=O)C2CC2)CC1` [Example 37, Cyclopropyl(6-((2-(1-(cyclopropylsulfonyl)-1H-pyrazol-4-yl)pyrimidin-4-yl)amino)-4-((1-(2-(dimethylamino)ethyl)piperidin-4-yl)amino)pyridin-3-yl)methanone], the IC50 was 1.2 nM on EGFR del19/T790M/C797S (setting [1]); 1 nM on EGFR del19/T790M/C797S (setting [2]); 2 nM at EGFR L858R/T790M/C797S (setting [3]); 0.4 nM on EGFR L858R/T790M/C797S (setting [4]); 79.9 nM against EGFR del19/C797S (setting [5]); 36.9 nM at EGFR del19/C797S (setting [6]). In addition, the IC50 at EGFR L858R/C797S (setting [7]) is 168 nM; on EGFR L858R/C797S (setting [8]) it was 9.7 nM; at EGFR wildtype (WT) (setting [9]), > 10000 nM; on EGFR wildtype (WT) (setting [10]), 113 nM.
`CN(C)C1CCN(CCNC2CCC(Nc3cc(Nc4ccnc(-c5cnn(S(=O)(=O)C6CC6)c5)n4)ncc3C(=O)C3CC3)CC2)CC1` (stereo not shown) [Example 57, Cyclopropyl(6-((2-(1-(cyclopropylsulfonyl)-1H-pyrazol-4-yl)pyrimidin-4-yl)amino)-4-((4-((2-(4-(dimethylamino)piperidin-1-yl)ethyl)amino)cyclohexyl)amino)pyridin-3-yl)methanone]: the IC50 against EGFR del19/T790M/C797S (setting [1]) is 0.6 nM; at EGFR L858R/T790M/C797S (setting [3]), 1 nM; against EGFR del19/C797S (setting [5]), 18 nM; against EGFR L858R/C797S (setting [7]) it was 10.7 nM; against EGFR wildtype (WT) (setting [9]) it was > 10000 nM.
In the case of `CN(C)C1CCN(CCNc2cc(Nc3ccnc(-c4cnn(S(=O)(=O)C5CC5)c4)n3)ncc2C(=O)C2CC2)CC1` [Example 21, Cyclopropyl(6-((2-(1-(cyclopropylsulfonyl)-1H-pyrazol-4-yl)pyrimidin-4-yl)amino)-4-((2-(4-(dimethylamino)piperidin-1-yl)ethyl)amino)pyridin-3-yl)methanone], the IC50 at EGFR del19/T790M/C797S (setting [2]) is 0.4 nM; on EGFR L858R/T790M/C797S (setting [4]), 1.1 nM; at EGFR del19/C797S (setting [6]) it was 72.3 nM; on EGFR L858R/C797S (setting [8]), 16.4 nM; on EGFR wildtype (WT) (setting [10]) it was 63.5 nM.
Consider `O=C(c1cnc(Nc2ccnc(-c3cnn(S(=O)(=O)C4CC4)c3)n2)cc1NC1CCN(C2COC2)CC1)C1CC1` [Example 38, Cyclopropyl(6-((2-(1-(cyclopropylsulfonyl)-1H-pyrazol-4-yl)pyrimidin-4-yl)amino)-4-((1-(oxetan-3-yl)piperidin-4-yl)amino)pyridin-3-yl)methanone], for which the IC50 was 2.7 nM at EGFR del19/T790M/C797S (setting [1]); 9.9 nM against EGFR L858R/T790M/C797S (setting [3]); 231 nM against EGFR del19/C797S (setting [5]); 200 nM against EGFR L858R/C797S (setting [7]); > 10000 nM at EGFR wildtype (WT) (setting [9]).

These data come from US11945798B2, “Substituted aminopyridine compounds as EGFR inhibitors” (YUHAN CORPORATION, priority 2021, dated 2024).
